Data from PubChem BioAssay (NCI).
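Protocol summary: plate cells (96-well), add compound at 5 concentrations, incubate 48 h, interpolate endpoints linearly. At the GI50, growth is halved. The concentration for full growth arrest is given as TGI.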

Legend:
Experiment in all cases: NCI anticancer screen, dose series, 48 h
HOP-92 NSCLC = system: HOP-92 NSCLC
NCI-H522 lung = system: NCI-H522 lung
UO-31 renal = system: UO-31 renal
BT-549 breast = system: BT-549 breast
SR leukemia = system: SR leukemia
RXF 393 renal = system: RXF 393 renal
COLO 205 colon = system: COLO 205 colon
SK-MEL-2 melanoma = system: SK-MEL-2 melanoma
HCT-15 colon = system: HCT-15 colon
MOLT-4 leukemia = system: MOLT-4 leukemia
MALME-3M melanoma = system: MALME-3M melanoma
T-47D breast = system: T-47D breast
SW-620 colon = system: SW-620 colon
SF-539 CNS = system: SF-539 CNS
MDA-MB-435 = system: MDA-MB-435
NCI-H23 lung = system: NCI-H23 lung
KM12 colon = system: KM12 colon
SK-MEL-28 melanoma = system: SK-MEL-28 melanoma
A549 NSCLC = system: A549 NSCLC
LOX IMVI melanoma = system: LOX IMVI melanoma
HOP-62 NSCLC = system: HOP-62 NSCLC
RPMI-8226 leukemia = system: RPMI-8226 leukemia
NCI-H460 lung = system: NCI-H460 lung
SNB-75 CNS = system: SNB-75 CNS
SF-295 CNS = system: SF-295 CNS
U251 CNS = system: U251 CNS
ACHN renal = system: ACHN renal
HCT-116 colon = system: HCT-116 colon
MDA-MB-231 breast = system: MDA-MB-231 breast
HL-60(TB) leukemia = system: HL-60(TB) leukemia
OVCAR-8 ovarian = system: OVCAR-8 ovarian
SF-268 CNS = system: SF-268 CNS
HS 578T breast = system: HS 578T breast
A498 renal = system: A498 renal
TK-10 renal = system: TK-10 renal
IGROV1 ovarian = system: IGROV1 ovarian
OVCAR-5 ovarian = system: OVCAR-5 ovarian
SK-MEL-5 melanoma = system: SK-MEL-5 melanoma
DU-145 prostate = system: DU-145 prostate
K-562 leukemia = system: K-562 leukemia
CAKI-1 renal = system: CAKI-1 renal
NCI-H226 lung = system: NCI-H226 lung
786-0 renal = system: 786-0 renal
OVCAR-4 ovarian = system: OVCAR-4 ovarian
EKVX NSCLC = system: EKVX NSCLC
SNB-19 CNS = system: SNB-19 CNS
UACC-62 melanoma = system: UACC-62 melanoma
HCC-2998 colon = system: HCC-2998 colon
HT29 colon = system: HT29 colon
SN12C renal = system: SN12C renal
NCI/ADR-RES ovarian = system: NCI/ADR-RES ovarian
CCRF-CEM leukemia = system: CCRF-CEM leukemia
MCF7 breast = system: MCF7 breast
OVCAR-3 ovarian = system: OVCAR-3 ovarian
SK-OV-3 ovarian = system: SK-OV-3 ovarian
M14 melanoma = system: M14 melanoma
PC-3 prostate = system: PC-3 prostate
UACC-257 melanoma = system: UACC-257 melanoma

Work on `CCC1CCCCN1C(=S)N/N=C(\C)c1ccccn1` (stereo not given) yielded a GI50 (HOP-92 NSCLC) of 0.175 µM, a TGI (HOP-92 NSCLC) of 1.85 µM and a GI50 (NCI-H522 lung) of 0.0912 µM. The TGI (NCI-H522 lung) was 1.82 µM, the GI50 (UO-31 renal) was 0.134 µM and the TGI (UO-31 renal) was 1.82 µM. The GI50 (BT-549 breast) was 0.092 µM, the TGI (BT-549 breast) was 2.72 µM and the GI50 (SR leukemia) was 0.0716 µM. For the same molecule, the TGI (SR leukemia) was over 100 µM, the GI50 (RXF 393 renal) was 0.488 µM and the TGI (RXF 393 renal) was 1.91 µM. For the same molecule, the GI50 (COLO 205 colon) was 0.0227 µM, the TGI (COLO 205 colon) was 0.379 µM and the GI50 (SK-MEL-2 melanoma) was 0.0733 µM. For the same molecule, the TGI (SK-MEL-2 melanoma) was 1.65 µM, the GI50 (HCT-15 colon) was 0.0269 µM and the TGI (HCT-15 colon) was 3.3 µM. For the same molecule, the GI50 (MOLT-4 leukemia) was 0.0982 µM, the TGI (MOLT-4 leukemia) was over 20.7 µM and the GI50 (MALME-3M melanoma) was under 0.0325 µM. It also gave a TGI (MALME-3M melanoma) of 2.03 µM, a GI50 (T-47D breast) of under 0.0146 µM and a TGI (T-47D breast) of 1.63 µM. For the same molecule, the GI50 (SW-620 colon) was 0.0463 µM, the TGI (SW-620 colon) was 2.76 µM and the GI50 (SF-539 CNS) was 0.171 µM. For the same molecule, the TGI (SF-539 CNS) was 2.45 µM, the GI50 (MDA-MB-435) was 0.127 µM and the TGI (MDA-MB-435) was 1.79 µM. The GI50 (NCI-H23 lung) was 0.0365 µM, the TGI (NCI-H23 lung) was 5.01 µM and the GI50 (KM12 colon) was 0.0732 µM. For the same molecule, the TGI (KM12 colon) was 1.52 µM, the GI50 (SK-MEL-28 melanoma) was 0.561 µM and the TGI (SK-MEL-28 melanoma) was 4.65 µM. The GI50 (A549 NSCLC) was 0.0346 µM, the TGI (A549 NSCLC) was 2.94 µM and the GI50 (LOX IMVI melanoma) was under 0.0246 µM. It also gave a TGI (LOX IMVI melanoma) of 3.86 µM, a GI50 (HOP-62 NSCLC) of 0.0504 µM and a TGI (HOP-62 NSCLC) of 1.96 µM. The GI50 (RPMI-8226 leukemia) was 0.0423 µM, the TGI (RPMI-8226 leukemia) was 1.89 µM and the GI50 (NCI-H460 lung) was 0.0479 µM. For the same molecule, the TGI (NCI-H460 lung) was 3.17 µM, the GI50 (SNB-75 CNS) was 0.479 µM and the TGI (SNB-75 CNS) was 2.12 µM. It also gave a GI50 (SF-295 CNS) of 0.0296 µM, a TGI (SF-295 CNS) of 2.81 µM and a GI50 (U251 CNS) of under 0.0172 µM. The TGI (U251 CNS) was 6.16 µM, the GI50 (ACHN renal) was under 0.0175 µM and the TGI (ACHN renal) was 1.67 µM. It also gave a TGI (HCT-116 colon) of 3.49 µM, a GI50 (MDA-MB-231 breast) of 0.0922 µM and a TGI (MDA-MB-231 breast) of 3.69 µM. For the same molecule, the GI50 (HL-60(TB) leukemia) was 0.0429 µM, the TGI (HL-60(TB) leukemia) was 3.91 µM and the GI50 (OVCAR-8 ovarian) was under 0.0255 µM. For the same molecule, the TGI (OVCAR-8 ovarian) was 2.06 µM, the GI50 (SF-268 CNS) was 0.0766 µM and the TGI (SF-268 CNS) was 5.62 µM. It also gave a GI50 (HS 578T breast) of 1.06 µM, a TGI (HS 578T breast) of 14.5 µM and a GI50 (A498 renal) of 0.136 µM. It also gave a TGI (A498 renal) of 1.93 µM, a GI50 (TK-10 renal) of 0.191 µM and a TGI (TK-10 renal) of 2.56 µM. For the same molecule, the GI50 (IGROV1 ovarian) was under 0.0304 µM, the TGI (IGROV1 ovarian) was 2.44 µM and the GI50 (OVCAR-5 ovarian) was 0.416 µM. It also gave a TGI (OVCAR-5 ovarian) of 4.88 µM, a GI50 (SK-MEL-5 melanoma) of 0.194 µM and a TGI (SK-MEL-5 melanoma) of 1.59 µM. For the same molecule, the GI50 (DU-145 prostate) was 0.292 µM, the TGI (DU-145 prostate) was 3.75 µM and the GI50 (K-562 leukemia) was 0.0238 µM. It also gave a TGI (K-562 leukemia) of over 100 µM, a GI50 (CAKI-1 renal) of 0.0466 µM and a TGI (CAKI-1 renal) of 1.83 µM. It also gave a GI50 (NCI-H226 lung) of 0.561 µM, a TGI (NCI-H226 lung) of 2.13 µM and a GI50 (786-0 renal) of 0.853 µM. For the same molecule, the TGI (786-0 renal) was 2.39 µM, the GI50 (OVCAR-4 ovarian) was 0.0364 µM and the TGI (OVCAR-4 ovarian) was 3.57 µM. The GI50 (EKVX NSCLC) was 0.0728 µM, the TGI (EKVX NSCLC) was 4.8 µM and the GI50 (SNB-19 CNS) was 0.154 µM. It also gave a TGI (SNB-19 CNS) of 4.79 µM, a GI50 (UACC-62 melanoma) of 0.123 µM and a TGI (UACC-62 melanoma) of 1.92 µM. For the same molecule, the GI50 (HCC-2998 colon) was 0.156 µM, the TGI (HCC-2998 colon) was 2.76 µM and the GI50 (HT29 colon) was under 0.0253 µM. It also gave a TGI (HT29 colon) of 4.69 µM, a GI50 (SN12C renal) of 0.114 µM and a TGI (SN12C renal) of 3.87 µM. It also gave a GI50 (NCI/ADR-RES ovarian) of 0.0472 µM, a TGI (NCI/ADR-RES ovarian) of 6.26 µM and a GI50 (CCRF-CEM leukemia) of 0.0414 µM. For the same molecule, the TGI (CCRF-CEM leukemia) was over 100 µM, the GI50 (MCF7 breast) was under 0.0121 µM and the TGI (MCF7 breast) was 4.2 µM. The GI50 (OVCAR-3 ovarian) was under 0.0133 µM, the TGI (OVCAR-3 ovarian) was 1.16 µM and the GI50 (SK-OV-3 ovarian) was 0.304 µM. The TGI (SK-OV-3 ovarian) was 2.46 µM, the GI50 (M14 melanoma) was 0.0358 µM and the TGI (M14 melanoma) was 1.96 µM. The GI50 (PC-3 prostate) was 0.0195 µM, the TGI (PC-3 prostate) was 2.99 µM and the GI50 (UACC-257 melanoma) was under 0.0215 µM. For the same molecule, the TGI (UACC-257 melanoma) was 1.68 µM.
